The source of these data is patent publication US20230364070A1, “PYRROLO[3,2-C]PYRIDIN-4-ONE DERIVATIVES USEFUL IN THE TREATMENT OF CANCER” (Scorpion Therapeutics, Inc., priority 2020, published 2023).

SMILES strings stand for the structures. Where only a bound is given, the exact number is not on record here.

Holding throughout (format): cell-based
Test [1] deals with T1, pEGFR in Ba/F3 cells expressing EGFR exon 20 NPG Ins D770_N771 (Homo sapiens, UniProt P00533, INS770NPG).
T1 construct: expressed in transfected cells; host or cells: Ba/F3 (murine pro-B cells), retroviral transduction, puromycin selection, IL3-independent pool
T1 sequence (P00533 with tags, fused parts or gaps INS770NPG): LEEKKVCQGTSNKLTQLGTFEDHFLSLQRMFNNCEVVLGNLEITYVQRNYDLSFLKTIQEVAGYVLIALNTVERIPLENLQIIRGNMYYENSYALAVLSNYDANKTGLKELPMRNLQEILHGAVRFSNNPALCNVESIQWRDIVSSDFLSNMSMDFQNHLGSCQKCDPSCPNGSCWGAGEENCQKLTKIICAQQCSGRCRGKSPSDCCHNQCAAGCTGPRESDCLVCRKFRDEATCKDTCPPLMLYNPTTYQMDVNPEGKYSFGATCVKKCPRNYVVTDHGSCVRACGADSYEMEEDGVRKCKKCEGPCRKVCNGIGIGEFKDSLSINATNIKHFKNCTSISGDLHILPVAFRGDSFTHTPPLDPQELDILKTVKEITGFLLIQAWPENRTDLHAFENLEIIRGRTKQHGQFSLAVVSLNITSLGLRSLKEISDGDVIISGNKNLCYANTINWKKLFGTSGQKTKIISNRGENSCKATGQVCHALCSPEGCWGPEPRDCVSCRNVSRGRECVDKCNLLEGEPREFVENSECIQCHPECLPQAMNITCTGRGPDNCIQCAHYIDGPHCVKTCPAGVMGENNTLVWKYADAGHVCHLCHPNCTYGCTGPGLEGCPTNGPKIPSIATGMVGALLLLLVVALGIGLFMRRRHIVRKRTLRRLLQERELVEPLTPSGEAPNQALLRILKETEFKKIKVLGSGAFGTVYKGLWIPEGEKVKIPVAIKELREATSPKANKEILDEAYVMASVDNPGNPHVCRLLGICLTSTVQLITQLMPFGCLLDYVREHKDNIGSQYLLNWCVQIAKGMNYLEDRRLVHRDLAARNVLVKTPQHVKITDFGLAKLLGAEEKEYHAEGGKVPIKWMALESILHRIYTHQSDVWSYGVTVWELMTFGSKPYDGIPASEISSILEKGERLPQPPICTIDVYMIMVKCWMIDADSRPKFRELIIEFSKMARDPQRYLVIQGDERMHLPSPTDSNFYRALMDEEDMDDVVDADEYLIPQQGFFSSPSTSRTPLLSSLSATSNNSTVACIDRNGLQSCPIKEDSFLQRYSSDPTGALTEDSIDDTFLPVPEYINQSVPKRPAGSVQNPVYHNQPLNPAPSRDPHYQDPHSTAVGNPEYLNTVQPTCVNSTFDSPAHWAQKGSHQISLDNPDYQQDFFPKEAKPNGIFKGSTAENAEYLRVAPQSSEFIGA
The test can be described thus: Inhibitor activity on EGFR phosphorylation (pEGFR AlphaLISA, 2 h), Ba/F3 EGFR exon 20 NPG insertion. The settings on record: Ba/F3 EGFR exon 20 NPG Ins D770_N771. In general terms: Bead proximity is the source of the signal in Alpha formats.

For test [2], the target named is T2, Ba/F3 cells with EGFR exon 20 NPG Ins D770_N771 (Homo sapiens, UniProt P00533, INS770NPG).
T2 construct: expressed in transfected cells; host or cells: Ba/F3 (murine pro-B cells), retroviral transduction, puromycin selection, IL3-independent pool
T2 sequence (P00533 with tags, fused parts or gaps INS770NPG): as above
The test can be described thus: EGFR activity: Ba/F3 cell viability (CellTiter-Glo, 72 h), EGFR exon 20 NPG insertion. The settings on record: EGFR exon 20 NPG Ins D770_N771, cell viability, read-out: BaF3 NPG IC50.

A further test has as its target T3, Ba/F3 cells with EGFR WT (Homo sapiens, UniProt P00533).
T3 construct: expressed in transfected cells; host or cells: Ba/F3 (murine pro-B cells), retroviral transduction, puromycin selection, maintained with EGF
The test can be described thus: EGFR activity: Ba/F3 cell viability (CellTiter-Glo, 72 h), EGFR WT. The settings on record: read-out: BaF3 WT IC50.

For the next test, the target named is T4, pEGFR in CUTO14 cells (Homo sapiens, UniProt P00533, DUP767-769).
T4 construct: endogenous in cells; host or cells: CUTO14 cells
The test can be described thus: Inhibitor activity on EGFR phosphorylation (pEGFR AlphaLISA, 2 h), CUTO14 cells. The method, then: CUTO14 cells were obtained from Dr. Robert C. Doebele at the University of Colorado.
Shake 350 rpm for 1 hr in the dark • 3.4 Prepare donor mix under low light conditions prior to use. Dispense 5 μL of donor mix to all the wells. Mix well on the shaker, seal and wrap in aluminum foil and incubate 1.5 hrs at room temperature in the dark • 3.5 Transfer 18.5 μL mixture to OptiPlate 384, and read using an Envision.

The target of test [3] is T5, Ba/F3 cells with EGFR exon 20 ASV Ins V769_D770 (Homo sapiens, UniProt P00533, INS769ASV).
T5 construct: expressed in transfected cells; host or cells: Ba/F3 (murine pro-B cells), retroviral transduction, puromycin selection, IL3-independent pool
T5 sequence (P00533 with tags, fused parts or gaps INS769ASV): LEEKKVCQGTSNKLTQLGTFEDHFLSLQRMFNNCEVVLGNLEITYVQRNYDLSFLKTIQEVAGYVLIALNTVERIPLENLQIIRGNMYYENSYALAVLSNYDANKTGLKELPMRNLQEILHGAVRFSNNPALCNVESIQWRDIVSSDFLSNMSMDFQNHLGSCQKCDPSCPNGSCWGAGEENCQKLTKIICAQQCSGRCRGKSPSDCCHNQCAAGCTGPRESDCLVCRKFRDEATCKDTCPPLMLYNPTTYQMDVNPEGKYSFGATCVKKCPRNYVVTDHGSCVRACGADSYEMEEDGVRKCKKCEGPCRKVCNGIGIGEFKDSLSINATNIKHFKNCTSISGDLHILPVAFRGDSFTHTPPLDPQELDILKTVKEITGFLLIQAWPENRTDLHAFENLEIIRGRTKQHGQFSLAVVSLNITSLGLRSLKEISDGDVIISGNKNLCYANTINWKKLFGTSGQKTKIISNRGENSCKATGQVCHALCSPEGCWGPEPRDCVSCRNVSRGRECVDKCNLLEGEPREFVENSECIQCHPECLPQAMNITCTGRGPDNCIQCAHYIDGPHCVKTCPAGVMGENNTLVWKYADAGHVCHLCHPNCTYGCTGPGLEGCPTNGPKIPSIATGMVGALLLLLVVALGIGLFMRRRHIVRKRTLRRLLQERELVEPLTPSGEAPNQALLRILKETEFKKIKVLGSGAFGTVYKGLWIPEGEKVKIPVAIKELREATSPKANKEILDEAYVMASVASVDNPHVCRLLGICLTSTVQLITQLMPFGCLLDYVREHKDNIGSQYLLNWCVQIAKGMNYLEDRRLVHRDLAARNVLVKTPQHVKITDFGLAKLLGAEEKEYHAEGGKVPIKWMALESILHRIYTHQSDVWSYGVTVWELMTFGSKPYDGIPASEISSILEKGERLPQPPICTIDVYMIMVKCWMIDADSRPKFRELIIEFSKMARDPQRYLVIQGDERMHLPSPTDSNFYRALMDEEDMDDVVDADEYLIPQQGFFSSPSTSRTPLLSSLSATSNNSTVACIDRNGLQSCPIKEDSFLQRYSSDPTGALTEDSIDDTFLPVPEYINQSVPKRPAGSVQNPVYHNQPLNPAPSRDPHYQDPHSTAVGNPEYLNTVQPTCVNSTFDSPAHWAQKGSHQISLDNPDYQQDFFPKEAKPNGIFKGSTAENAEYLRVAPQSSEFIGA
The test can be described thus: EGFR activity: Ba/F3 cell viability (CellTiter-Glo, 72 h), EGFR exon 20 ASV insertion. The conditions noted are these: EGFR exon 20 ASV Ins V769_D770, cell viability, read-out: BaF3 ASV IC50. In general terms: Cellular ATP, detected with luciferase, serves as a proxy for viable cell number.

T3 sequence (P00533 25-1210): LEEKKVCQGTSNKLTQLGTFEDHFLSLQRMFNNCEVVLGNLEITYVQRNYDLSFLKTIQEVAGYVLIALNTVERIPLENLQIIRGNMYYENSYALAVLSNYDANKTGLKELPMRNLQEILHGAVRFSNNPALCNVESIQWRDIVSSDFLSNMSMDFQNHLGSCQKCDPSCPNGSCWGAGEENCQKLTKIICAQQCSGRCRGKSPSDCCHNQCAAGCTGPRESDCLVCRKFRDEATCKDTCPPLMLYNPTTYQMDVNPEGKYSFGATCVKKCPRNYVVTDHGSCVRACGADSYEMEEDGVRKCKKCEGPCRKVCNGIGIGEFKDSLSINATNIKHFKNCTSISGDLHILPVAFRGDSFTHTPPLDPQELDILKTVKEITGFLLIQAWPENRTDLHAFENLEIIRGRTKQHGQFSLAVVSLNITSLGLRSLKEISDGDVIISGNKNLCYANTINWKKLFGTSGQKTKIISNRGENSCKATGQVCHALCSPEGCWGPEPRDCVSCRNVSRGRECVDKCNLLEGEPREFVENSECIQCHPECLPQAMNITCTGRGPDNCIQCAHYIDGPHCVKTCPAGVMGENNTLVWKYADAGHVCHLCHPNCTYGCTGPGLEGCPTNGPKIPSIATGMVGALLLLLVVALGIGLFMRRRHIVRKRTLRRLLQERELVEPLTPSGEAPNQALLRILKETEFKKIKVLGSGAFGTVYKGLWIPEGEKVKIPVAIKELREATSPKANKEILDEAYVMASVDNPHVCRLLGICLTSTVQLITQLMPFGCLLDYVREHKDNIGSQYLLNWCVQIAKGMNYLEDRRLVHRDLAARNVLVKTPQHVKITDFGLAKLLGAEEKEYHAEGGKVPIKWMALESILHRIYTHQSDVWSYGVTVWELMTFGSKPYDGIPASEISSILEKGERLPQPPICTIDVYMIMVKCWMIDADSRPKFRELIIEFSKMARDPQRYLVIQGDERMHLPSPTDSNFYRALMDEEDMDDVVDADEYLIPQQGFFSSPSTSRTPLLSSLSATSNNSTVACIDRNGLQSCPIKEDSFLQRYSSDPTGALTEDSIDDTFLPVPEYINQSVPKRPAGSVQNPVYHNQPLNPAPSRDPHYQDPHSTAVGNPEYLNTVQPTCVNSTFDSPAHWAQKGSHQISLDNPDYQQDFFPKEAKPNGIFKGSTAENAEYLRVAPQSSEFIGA

What is called IC50 is the concentration that gives 50% inhibition. `COc1c(Cl)cccc1Nc1c(-c2ccncc2OC[C@@H]2CCN2S(C)(=O)=O)[nH]c2c1C(=O)NCC2` [compound 192, 3-[(3-chloro-2-methoxyphenyl)amino]-2-(3-{[(2S)-1-methanesulfonylazetidin-2-yl]methoxy}pyridin-4-yl)-1H,5H,6H,7H-pyrrolo[3,2-c]pyridin-4-one]: the IC50 in test [1] was less than 100 nM.

With `COc1c(Cl)cccc1Nc1c(-c2ccncc2OC[C@@H]2CCCN2C(C)=O)[nH]c2c1C(=O)NCC2` [Compound 141a, (S)-2-(3-((1-acetylpyrrolidin-2-yl)methoxy)pyridin-4-yl)-3-((3-chloro-2-methoxyphenyl)amino)-1,5,6,7-tetrahydro-4H-pyrrolo[3,2-c]pyridin-4-one], the IC50 was greater than 1000 nM in test [2], 100 to 1000 nM in test [1] and greater than 1000 nM at Ba/F3 cells with EGFR WT.

Compound `COc1c(Cl)cccc1Nc1c(-c2ccncc2OCc2ccco2)[nH]c2c1C(=O)NCC2` [compound 471, 3-[(3-chloro-2-methoxyphenyl)amino]-2-[3-(furan-2-ylmethoxy)pyridin-4-yl]-1H,5H,6H,7H-pyrrolo[3,2-c]pyridin-4-one] yielded an IC50 in test [1] greater than 1000 nM.

Regarding `COc1c(F)cccc1Nc1c(-c2ccncc2OCn2nnc3ccccc32)[nH]c2c1C(=O)NCC2` [Compound 479, 2-[3-(1,2,3-benzotriazol-1-ylmethoxy)pyridin-4-yl]-3-[(3-fluoro-2-methoxyphenyl)amino]-1H,5H,6H,7H-pyrrolo[3,2-c]pyridin-4-one], the values for the IC50 (in test [2]; in test [1]; at Ba/F3 cells with EGFR WT) were greater than 1000 nM, 100 to 1000 nM and greater than 1000 nM, respectively.

As for `COc1c(Cl)cccc1Nc1c(-c2ccncc2OC[C@@H]2CN(C(C)=O)CCO2)[nH]c2c1C(=O)NCC2` [compound 195, 2-(3-{[(2S)-4-acetylmorpholin-2-yl]methoxy}pyridin-4-yl)-3-[(3-chloro-2-methoxyphenyl)amino]-1H,5H,6H,7H-pyrrolo[3,2-c]pyridin-4-one], the IC50 in test [1] was less than 100 nM.

As to `COc1c(F)cccc1Nc1c(-c2ccncc2Oc2cnn(C)c2)[nH]c2c1C(=O)NCC2` [compound 484, 3-[(3-fluoro-2-methoxyphenyl)amino]-2-[3-[(1-methylpyrazol-4-yl)oxy]pyridin-4-yl]-1H,5H,6H,7H-pyrrolo[3,2-c]pyridin-4-one], the IC50 in test [1] is greater than 1000 nM.

In turn, `COc1c(Cl)cccc1Nc1c(-c2ccncc2C#C[C@H]2COCCN2C)[nH]c2c1C(=O)NCC2` [compound 494, 3-[(3-chloro-2-methoxyphenyl)amino]-2-(3-[2-[(3S)-4-methylmorpholin-3-yl]ethynyl]pyridin-4-yl)-1H,5H,6H,7H-pyrrolo[3,2-c]pyridin-4-one] registered an IC50 in test [1] of less than 100 nM.

Take `C=CC(=O)N1CCOC[C@H]1C#Cc1cnccc1-c1[nH]c2c(c1Nc1cccc(Cl)c1OC)C(=O)NCC2` [compound 514, 3-[(3-chloro-2-methoxyphenyl)amino]-2-(3-{2-[(3R)-4-(prop-2-enoyl)morpholin-3-yl]ethynyl}pyridin-4-yl)-1H,5H,6H,7H-pyrrolo[3,2-c]pyridin-4-one]: the IC50 in test [1] was less than 100 nM.

`COc1c(Cl)cccc1Nc1c(-c2ccncc2OC[C@H]2CCCN2C(C)=O)[nH]c2c1C(=O)NCC2` [Compound 141b, 2-(3-[[(2R)-1-acetylpyrrolidin-2-yl]methoxy]pyridin-4-yl)-3-[(3-chloro-2-methoxyphenyl)amino]-1H,5H,6H,7H-pyrrolo[3,2-c]pyridin-4-one]: the IC50 was greater than 1000 nM in test [2], less than 100 nM in test [1] and greater than 1000 nM on Ba/F3 cells with EGFR WT.

Regarding `C=CC(=O)N1CC(C)(C)C[C@@H]1COc1cnccc1-c1[nH]c2c(c1Nc1cccc(Cl)c1OC)C(=O)NCC2` [compound 265], the IC50 (on pEGFR in CUTO14 cells; in test [2]; in test [3]; on Ba/F3 cells with EGFR WT) was less than 100 nM in each case.

As for `Cc1c(F)cccc1Nc1c(-c2ccncc2C#C[C@@]2(C)CCCN2C(=O)/C=C/CN(C)C)[nH]c2c1C(=O)NCC2` [compound 450], the IC50 was less than 100 nM on pEGFR in CUTO14 cells, less than 100 nM in test [2], less than 100 nM in test [3] and 100 to 1000 nM at Ba/F3 cells with EGFR WT.

Take `C=CC(=O)N1CCC[C@@]1(C)C#Cc1cnccc1-c1[nH]c2c(c1Nc1cccc(F)c1OC)C(=O)NCC2` [compound 246, 3-[(3-fluoro-2-methoxyphenyl)amino]-2-(3-{2-[(2S)-2-methyl-1-(prop-2-enoyl)pyrrolidin-2-yl]ethynyl}pyridin-4-yl)-1H,5H,6H,7H-pyrrolo[3,2-c]pyridin-4-one]: the half-inhibitory concentration (IC50) in test [1] was less than 100 nM.

As for `COc1c(Cl)cccc1Nc1c(-c2ccncc2C#C[C@@]2(NC(=O)/C=C/CN(C)C)CCOC2)[nH]c2c1C(=O)NCC2` [compound 420], the IC50 against pEGFR in CUTO14 cells is less than 100 nM; in test [2] it was less than 100 nM; in test [3] it was less than 100 nM; at Ba/F3 cells with EGFR WT, 100 to 1000 nM.

As to `CC#CC(=O)N1CCC[C@]1(C)C#Cc1cnccc1-c1[nH]c2c(c1Nc1cc(F)cc(Cl)c1OC)C(=O)NCC2` [compound 431], the IC50 against pEGFR in CUTO14 cells was less than 100 nM; in test [2] it was less than 100 nM; in test [3], less than 100 nM; at Ba/F3 cells with EGFR WT, 100 to 1000 nM.

Regarding `COc1c(F)cccc1Nc1c(-c2ccncc2C#CC2(C)CCN2C(=O)/C=C/CN(C)C)[nH]c2c1C(=O)NCC2` (centres unmarked) [compound 462], the 50% inhibitory concentration (IC50) (on pEGFR in CUTO14 cells; in test [2]; in test [3]; at Ba/F3 cells with EGFR WT) was greater than 1000 nM in each case.

In test [1], `C=CC(=O)N1CCC[C@H]1COc1cnccc1-c1[nH]c2c(c1Nc1cccc(F)c1OC)C(=O)NCC2` [compound 212, 3-[(3-fluoro-2-methoxyphenyl)amino]-2-(3-{[(2S)-1-(prop-2-enoyl)pyrrolidin-2-yl]methoxy}pyridine-4-yl)-1H,5H,6H,7H-pyrrolo[3,2-c]pyridin-4-one] showed an IC50 of less than 100 nM.

As to `CCc1c(F)cccc1Nc1c(-c2ccncc2OC[C@@]2(C)CCN2C(=O)/C=C/CN(C)C)[nH]c2c1C(=O)NCC2` [compound 426], the IC50 at pEGFR in CUTO14 cells is less than 100 nM; in test [2], less than 100 nM; in test [3] it was less than 100 nM; on Ba/F3 cells with EGFR WT, 100 to 1000 nM.

Consider `COc1c(Cl)cccc1Nc1c(-c2ccncc2OC[C@@]2(C)CCN2C(=O)/C=C/CN(C)C)[nH]c2c1C(=O)NCC2` [compound 425], for which the IC50 on pEGFR in CUTO14 cells is less than 100 nM; in test [2], less than 100 nM; in test [3], less than 100 nM; on Ba/F3 cells with EGFR WT, 100 to 1000 nM.

As for `COc1c(F)cccc1Nc1c(-c2ccncc2C#C[C@@]2(C)CCCN2C(=O)/C=C/CN2CC[C@H](OC)C2)[nH]c2c1C(=O)NCC2` [compound 443], the 50% inhibitory concentration (IC50) is less than 100 nM on pEGFR in CUTO14 cells, less than 100 nM in test [2], less than 100 nM in test [3] and 100 to 1000 nM on Ba/F3 cells with EGFR WT.

Consider `C=CC(=O)NC1(C#Cc2cnccc2-c2[nH]c3c(c2Nc2cccc(F)c2OC)C(=O)NCC3)CCOCC1` [compound 383], for which the IC50 against pEGFR in CUTO14 cells was 100 to 1000 nM; in test [2] it was less than 100 nM; in test [3] it was 100 to 1000 nM; at Ba/F3 cells with EGFR WT, greater than 1000 nM.

`C=CC(=O)N1CCOC[C@@H]1C#Cc1cnccc1-c1[nH]c2c(c1Nc1cccc(Cl)c1OC)C(=O)NCC2` [compound 515, 3-[(3-chloro-2-methoxyphenyl)amino]-2-(3-{2-[(3S)-4-(prop-2-enoyl)morpholin-3-yl]ethynyl}pyridine-4-yl)-1H,5H,6H,7H-pyrrolo[3,2-c]pyridin-4-one] gave an IC50 in test [1] of less than 100 nM.

Regarding `Cc1c(F)cccc1Nc1c(-c2ccncc2C#CC(C)(C)NC(=O)/C=C/CN(C)C)[nH]c2c1C(=O)NCC2` [compound 449], the IC50 was less than 100 nM against pEGFR in CUTO14 cells, less than 100 nM in test [2], less than 100 nM in test [3] and 100 to 1000 nM at Ba/F3 cells with EGFR WT.

Turning to `CC#CC(=O)N1CC[C@@H]1COc1cnccc1-c1[nH]c2c(c1Nc1cccc(Cl)c1F)C(=O)NCC2` [compound 407], the IC50 (at pEGFR in CUTO14 cells; in test [2]; in test [3]; at Ba/F3 cells with EGFR WT) was less than 100 nM in each case.

Consider `COc1c(Cl)cccc1Nc1c(-c2ccncc2C#C[C@@H]2CCN2C(=O)/C=C/CN(C)C)[nH]c2c1C(=O)NCC2` [compound 457], for which the IC50 (against pEGFR in CUTO14 cells; in test [2]; in test [3]; on Ba/F3 cells with EGFR WT) was less than 100 nM in each case.

Regarding `CCc1c(F)cccc1Nc1c(-c2ccncc2C#CC(C)(C)NC(=O)/C=C/CN(C)C)[nH]c2c1C(=O)NCC2` [compound 453], the IC50 at pEGFR in CUTO14 cells is less than 100 nM; in test [2], less than 100 nM; in test [3] it was less than 100 nM; on Ba/F3 cells with EGFR WT, 100 to 1000 nM.

Turning to `C=CC(=O)N1CCN(C)C[C@@H]1COc1cnccc1-c1[nH]c2c(c1Nc1cccc(Cl)c1OC)C(=O)NCC2` [compound 565], the IC50 is 100 to 1000 nM on pEGFR in CUTO14 cells, 100 to 1000 nM in test [2], 100 to 1000 nM in test [3] and greater than 1000 nM on Ba/F3 cells with EGFR WT.
